Assay results reported in US4188398A, “Method for treating epilepsy” (priority 1978, dated 1980).
Entries after “also recorded” stand apart in the source; their conditions may differ.

What was measured:
[1] = Acute toxicity, single intraperitoneal administration, 48 hours (Litchfield and Wilcockson); format: in vivo, white mice
Procedure: The acute toxicity of the proposed preparation was tested on white mice weighing 19 to 20 g, by single intraperitoneal administrations of 1.5- and 10-percent colloidal solutions of the anticonvulsant in a 0.5-percent solution of carboxymethyl cellulose. The animals were observed during 48 hours. In order to establish the median lethal dose (LD50), the experimental data was statistically processed using the Litchfield and Wilcockson techniques. Milontin and zarontin were analyzed in the same way.

[2] = Duration of Nembutal-induced sleep; format: in vivo; details: P = 0.05; Nembutal 40 mg/kg; proposed preparation 100 mg/kg, zarontin 150 mg/kg, milontin 100 mg/kg
Source text: (§1) Nembutal was used as a trunk narcotic, and urethane as a cortical narcotic.

[3] = Nicotine-induced convulsions; format: in vivo, mice
Procedure: (§5) The anticonvulsant action of the proposed preparation was tested on mice weighing 19 to 25 g and rats weighing 120 to 150 g by conducting maximum electroshock, corazol, strychnine, camphor, nicotine and arecoline tests.

[4] = Daily administration for eight weeks, rats (chronic toxicity); format: in vivo; details: 400 mg/kg per os once a day
Procedure: The effects of daily administrations of the proposed anticonvulsant, carried out over prolonged periods of time, were studied on rabbits and rats.
A colloidal solution of the proposed antispasmodic was administered per os in doses of 400 mg/kg to six rats. The drug was introduced through a metal probe once a day for eight weeks.
Every day the animals' weight and body temperature were measured, and their general state was assessed. Once a week, a general blood analysis was made, the urine was analyzed for protein, blood and biliary pigments. Upon the end of the experiment, the animals were killed (the rabbits were destroyed by air embolism; the rats were decapitated). The liver, heart, kidneys, spleen, lungs and different parts of the small intestine and stomach of the freshly killed animals were taken for pathomorphological investigation.

[5] = Teratogenic and embryotoxic tests (A. M. Chernukh's method); format: in vivo, mongrel white female rats; details: 400 mg/kg per os, rats
Procedure: Teratogenic and embryotoxic tests of the proposed preparation were carried out by using A. M. Chernukh's method on 35 mongrel white female rats weighing 150 to 200 g. The preparation was introduced per os in a dose of 400 mg/kg.
On the twentieth day of pregnancy, all the animals were decapitated.

[6] = Mutagenicity, threonine locus of Bacillus coli; format: cell-based; details: bacillus coli, 0.2-mole concentration
Procedure: (§2) The preparation was further studied with regard to the threonine locus of Bacillus coli at a 0.2-mole concentration; the object was subjected to treatment during 24 hours; the survival rate of the cells was between 42 and 91 percent.

[7] = test system: threonine locus of Bacillus coli; assay: Mutagenicity, threonine locus of Bacillus coli; format: cell-based; details: 0.2-mole concentration, 24 hours
Procedure: as §2

actinomyces = assay: Mutagenicity, Air-Shibalsky technique, actinomyces; format: cell-based
[8] = Single versus multiple administration, antagonism to corazol (addiction / habit forming); format: in vivo
[9] = Duration of urethane-induced sleep; format: in vivo
Source text: as §1

[10] = Clinical study in epilepsy patients; format: in vivo, human (patients)
Procedure: The therapeutic effectiveness of the preparation was evaluated while treating different forms of epilepsy.
The patient's age was between 4 and 56 years with the period of sickness ranging from 2 to 18 years. The different forms of the disease fell into the following categories according to clinical and encephalographic data: polymorphous fits with a deep temporal or frontotemporal focus of epileptic activity; psychomotor fits of pseudo absentia epileptica; generalized tonico-clonic convulsive fits; true absentia epileptica with myoclonic atonic fits and cerebrovascular diseases of the central nervous system, resulting in temporal epileptic fits and polymorphous fits.
The duration of the course of treatment varied from 3 months to 3 years.
The preparation of the present invention was administered per os 3 to 6 times a day; each time a patient was given a tablet of 0.25 g so that the daily dose of the preparation was 0.75 to 1.5 g. […] In a group of 40 patients, examination of other electroencephalographic convulsive manifestations was accompanied by studying focal paroxysmal phenomena in the temporal lobes.

[11] = test system: lysin locus of actinomyces; assay: Mutagenicity, lysin locus of actinomyces; format: cell-based; details: same doses
[12] = Duration of activity, maximum electroshock test; format: in vivo, white mice
Procedure: (§3) Corazol convulsions and maximum electroshock tests were carried out to determine the duration of the preparation's activity. Two series of experiments were made on white mice weighing 20 to 25 g. In the first series, the preparation was introduced intraperitoneally, whereas in the second series it was introduced into the stomach through a metal probe.
(§4) The anticonvulsive action of effective doses of the proposed preparation (200 mg/kg were introduced intraperitoneally, and 400 mg/kg were introduced per os) was tested every 30 minutes on separate groups of mice, each including 100 animals. The tests were continued until complete termination of the anticonvulsive effect.

[13] = Maximum electroshock test
Procedure: as §5

[14] = Electroencephalographic study of threshold and afteraction discharges, curarized animals; format: in vivo, cats and rabbits; details: 150 to 200 mg/kg
Procedure: The central action of the preparation was studied electroencephalographically. The acute experiments were conducted on curarized cats and rabbits and were aimed at investigating the effects of the preparation upon the threshold magnitude and the duration of afteraction discharges of the dorsal hippocamp, […] nuclei of the thalamus and the motor zone of the cortex.

[15] = Duration of activity, corazol test; format: in vivo, white mice
Procedure: as §3, §4

[16] = corazol, 200 mg/kg intraperitoneally

Procedure for Camphor convulsions test: as §5

Structure (SMILES): CC(C)Oc1ccc(C2CC(=O)NC2=O)cc1 (stereo not drawn) [proposed preparation, α-/para-isopropoxyphenyl/succinimide]
- antistrychnine effect, ranking of the three drugs (in words): the most pronounced
- ED50 (strychnine) (strychnine): 110 mg/kg
- protection index I=TD50/ED50, Strychnine (strychnine): 6.55
- protection index PI (mean lethal dose / mean effective dose), Strychnine (strychnine): 19.55
- relative toxicity ([1]; compared with milontin and zarontin): the least toxic of all; also recorded: more than two times less toxic than milontin; also recorded: one and half times less toxic than zarontin
- LD50 ([1]; intraperitoneal, white mice, P=0.05, 2880 min, listed as Preparation in accordance with invention): 2,150 (1,930 to 2,390) mg/kg
- LD50 at 48 h ([1]; mouse, in vivo, ip, intraperitoneal, white mice, P=0.05): 2150 mg/kg
- Average Duration of Nembutal-Induced Sleep [2]: 99 ± 67.6 min
- effect on intensity of nicotine-induced convulsions ([3]; 200 mg/kg, mice): markedly reduced the intensity of convulsions
- effect on nicotine-induced convulsions and tremor ([3]; 300 mg/kg): effectively prevents convulsions and tremor
- ED50 ([3]; Mus musculus): 190 mg/kg
- organ changes, macroscopic and microscopic histochemical investigation [4]: no changes were observed
- weight, body temperature, general state, blood and urine composition [4]: no changes were registered in the weight, body temperature and general state of the animals
- development of pregnancy [5]: the pregnancy developed normally
- abnormalities in embryos' growth, internal organs and skeletons ([5]; twentieth day of pregnancy): did not reveal any abnormalities in their growth
- fold induction at 24 h, 200000 µM ([6]; read-out: revertants relative to control (spontaneous mutation)): 1.8
- viability at 24 h, 200000 µM ([6]; read-out: survival rate of the cells): 42 to 91%
- genetic action [7]: extremely weak genetic action
- revertants induced [7]: no more than 17 revertants
- mutagenous effect (actinomyces): no mutagenous effect
- habit forming properties [8]: devoid of habit forming properties
- Average Duration of Urethane-Induced Sleep ([9]; P = 0.05, urethane 1,000 mg/kg, proposed preparation 100 mg/kg, zarontin 150 mg/kg, milontin 100 mg/kg): 3.2 ± 1.3 min
- effect upon the duration of urethane-induced sleep ([9]; in words): no effect upon the duration of urethane-induced sleep
- ED50 (Camphor convulsions test; Mus musculus, read-out: ED50 (camphor)): 90 mg/kg
- protection index I=TD50/ED50, Camphor (Camphor convulsions test; camphor): 8
- protection index PI (mean lethal dose / mean effective dose), Camphor (Camphor convulsions test; camphor): 23.9
- insomnia and disturbed sleep ([10]; administered shortly before bedtime): almost all the patients complained of insomnia and disturbed sleep
- itching of the skin, weakness and dizziness ([10]; after 3 or 4 days of treatment): very few cases
- time to discontinuation or lower frequency of seizures ([10]; after beginning of treatment, dose of 0.25 g): 7 to 8 days
- therapeutic effect in convulsive forms of epilepsy ([10]; cases of diffusive electroencephalographic pathology): week therapeutic effect
- effect in secondary generalized seizures ([10]; clinically and electroencephalographically established focal changes): ineffective
- depressing action upon the central nervous system ([10]; compared with other antiepileptic drugs): not as intense as that of other antiepileptic drugs
- patients in whom fits discontinued ([10]; group of 40 patients, after 10 to 14 days, per os 0.75 to 1.5 g daily): 18 patients
- anticonvulsive effect versus milontin and celontin in psychomotor and convulsive fits ([10]; human, in vivo): somewhat more effective
- effect on minor epileptic fits associated with anterior trunkal localization of the epileptic focus ([10]; human, in vivo): the most effective in stopping minor epileptic fits
- increased frequency of fits ([10]; human, in vivo): never resulted in an increased frequency of fits
- nausea ([10]; human, in vivo): Some patients complained of nausea
- potentiating effect upon convulsive paroxysms ([10]; human, in vivo): absence of a potentiating effect upon convulsive paroxysms
- weakness or dizziness in the day time ([10]; human, in vivo): does not cause weakness or dizziness in the day time
- sleep ([10]; last dose 3 or 4 hours before bedtime): normal sleep was soon restored
- allergic manifestations or somatic abnormalities ([10]; patients): no allergic manifestations or somatic abnormalities were observed
- effect on ambivalence of reactions, ability for mental work and night sleep ([10]; patients): improves the ambivalence of reactions and the ability for mental work; night sleep becomes deeper and longer
- effect on mood, affectivity, anxieties, stresses ([10]; patients): improves the general mood of patients, reduces affectivity, eliminates anxieties and relieves stresses
- effect upon aggressive, quarrelsome and importune epileptics ([10]; patients): soothing effect
- laboratory analyses of blood and urine ([10]; patients): no pathological changes
- pathologic changes in the blood system ([10]; patients): no pathologic changes in the blood system
- therapeutic effect in polymorphous paroxysms and fits of the temporal type ([10]; per os 0.75 to 1.5 g daily): the most effective in cases of polymorphous paroxysms and fits of the temporal type
- memory of actual events ([10]; psychologic examination): improves the memory of actual events
- reduction of frequency of fits ([10]; remaining 22 of 40 patients, per os 0.75 to 1.5 g daily): reduced from 3 to 4 a week to 2 to 3 a month
- sedative effect ([10]; single doses of 0.5 g): weak and short-lived sedative effect
- toxic neurological complications ([10]; uninterrupted courses up to eight months): does not result in any toxic neurological complications
- mutagenous effect [11]: weak mutagenous effect
- revertants induced [11]: no more than 41 revertants
- revertants relative to control [11]: thrice as great as that of the control
- time for which effect is maintained at its peak ([12]; maximum electroshock): seven
- duration of effect, oral versus intraperitoneal ([12]; maximum electroshock test): lasts longer in the case of oral administration
- ED50 ([13]; Mus musculus, read-out: ED50 (Electroshock)): 77 mg/kg
- protection index I=TD50/ED50, Electroshock ([13]; electroshock): 9.35
- protection index PI (mean lethal dose / mean effective dose), Electroshock ([13]; electroshock): 28
- anticonvulsant activity in maximum electroshock test ([13]; in words): anticonvulsant activity was only exhibited by the proposed preparation and milontin
- afteraction discharges of the thalamic nuclei [14]: prevented afteraction discharges of the thalamic nuclei
- convulsion threshold of the hippocamp [14]: slightly raised the convulsion threshold of the hippocamp
- period of discharges in the cortex [14]: considerably reduces the period of discharges in the cortex
- spread of convulsive activity to other brain structures [14]: prevents the spread of the convulsive activity to other brain structures
- stimulation threshold of the motor zone of the cortex [14]: does not raise the stimulation threshold of the motor zone of the cortex
- duration of effect, oral versus intraperitoneal ([15]; corazol test): lasts longer in the case of oral administration
- time after which effect totally disappears [15, 16]: three
- time of maximum anticonvulsive effect [15, 16]: 60 min
- time after which activity is gradually brought down ([15]; corazol, 400 mg/kg per os): six
- time after which effect totally disappears ([15]; corazol, 400 mg/kg per os): about eight
- time for which maximum level is maintained ([15]; corazol, 400 mg/kg per os): four and a half
- time of maximum anticonvulsive effect ([15]; corazol, 400 mg/kg per os): 90 min
